{
  "source": "patent US7276490B1",
  "about": "“Medicinal compositions containing prostacylin synthase gene” (priority 2000, dated 2007)",
  "key": {"[1]": {"test_system": "HEK-293 cells", "assay": "Apoptosis assay: X-Gal staining of β-galactosidase co-transfected cells, apoptotic morphology", "format": "cell-based, human", "conditions": "for effect of oligonucleotide on prostacyclin-mediated apoptosis: HEK-293, HVJ-liposome method; for induction/enhancement of apoptosis by treatment with the agent: various concentrations (1, 10, 100 μM) in serum-free medium, cells expressing β-galactosidase and PGISwt or PGISC441A", "experimental": "Cells were transfected with 1.0 μg of β-galactosidase expression vector using LipofectAMINE. After a fixed time, the cells were stained with X-Gal to evaluate the cells for apoptotic morphology. Apoptosis was monitored with ApoAlert caspase assay kit using Ac-DEVD-AFC substrate (Clontech). The activity was determined by using lysate pretreated with. Ac-DEVD-CHO as a control according to the supplier's instructions. The caspase activity is defined as a ratio between the caspase activity of a sample and that of lysate prepared from HEK-293 cells mock-transfected with a control plasmid.\nTo strictly ascertain the relationship between the expression of PGIS and apoptosis, HEK-293 cells were co-transfected with two types of expression constructs for human PGISwt and β-galactosidase. Because normal HEK-293 cells have flat morphology, it is easy to assess the cells for apoptotic changes characterized by membrane vesicle formation and cell body shrinkage. After incubation for a predetermined time following transfection, cells were stained with X-gal for β-galactosidase activity to identify cells containing the transgenes and then assessed for the apoptotic morphology. […] In HEK-293 cells, apoptosis was induced only by the expression of PGISwt without the presence of co-expression of COX-2 (FIGS. 4a and 5). The co-expression of COX-2 with PGISwt increased the number of apoptotic cells (16%). […] The level of 6-keto-PGF1α released into culture medium was correlated with the frequency of apoptosis (FIG. 6). […] Neither co-expression of PGISC441A and COX-2 nor further addition of arachidonic acid gave influence on the production 6-keto-PGF1α and morphological changes (FIGS. 5 and 6). These findings clearly indicate that prostacyclin produced by active PGIS participates in the process of apoptosis."}, "[2]": {"test_system": "HEK-293 cells", "assay": "Apoptosis assay: X-Gal staining of β-galactosidase co-transfected cells, apoptotic morphology", "format": "cell-based, human", "conditions": "HEK-293, HVJ-liposome method"}, "[3]": {"test_system": "PPAR", "assay": "PPREx3-luciferase assay in HEK-293 cells", "format": "cell-based, human", "description": "The sense oligonucleotide […] CTC (SEQ ID NO: 7) and antisense oligonucleotide […] A (which contains three copies of PPRE; SEQ ID NO: 8) were synthesized and annealed together; the resulting double-stranded DNA was subcloned into PGL3-promoter vector (Promega) at the MluI-XhoI site. PPREx3-luciferase reporter vector and β-galactosidase expression vector were co-transfected into HEK-293 cells using LipofectAMINE. The activity of β-galactosidase was normalized with absorbance at 405 nm."}, "[4]": {"test_system": "PPAR-δ", "assay": "Immunoblot of PPAR-δ after oligonucleotide transfection (HVJ-liposome method)", "format": "cell-based, human", "conditions": "after 48 hours", "description": "A lysate prepared from cells transfected with the PPAR-δ antisense oligonucleotide (AS) was immuno-blotted using an anti-PPAR-δ monoclonal antibody; a sense oligonucleotide (S) was used as a control.\ndS, which corresponds to human PPAR-δ cDNA sense sequence: 5′-CTCGGTGACTTATCCTGTG-3′ (SEQ ID NO: 3); dAS, which corresponds to human PPAR-δ cDNA antisense sequence: 5′-TCCTCTTTCTCCTCCTCTT-3′ (SEQ ID NO: 4); aS, which corresponds to human PPAR-α cDNA sense sequence: 5′-CTCGGTGACTTATCCTGTG-3′ (SEQ ID NO: 5); and aAS, which corresponds to human PPAR-α cDNA antisense sequence: 5′-CACAGGATAAGTCACCGAG-3′ (SEQ ID NO: 6). These oligonucleotides were transfected into cells by HVJ-liposome method. Each oligonucleotide (22 μg) was combined with a nuclear protein and high mobility group (HMG)-1. HVJ-liposome was prepared by combining dry lipid (phosphatidyl serine/phosphatidyl choline/cholesterol (1:4.8:2 w/w/w)) with ultraviolet light-inactivated HVJ virus (viruses). After incubation and centrifugation with a sucrose-density gradient, the top layer was collected for transfection. 48 hours after transfection, cells in which the expression of endogenous PPAR-δ had been suppressed were used in PPREx3-luciferase assay and apoptosis assay."}, "[5]": {"test_system": "recombinant PPAR", "conditions": "added to medium; cited from earlier work"}, "[6]": {"test_system": "HEK-293 cells", "assay": "Distribution of 3H-Iloprost in membrane, cytosol and nuclear fractions", "format": "in vitro ADME, human", "conditions": "100 μM 3H-Iloprost, 24 hours", "experimental": "FIG. 14 is a diagram showing the influence of the expression of PGIS on PPAR activation. The permeability of Iloprost was evaluated by using ^3H-Iloprost. HEK-293 cells were cultured in DMEM containing 100 μM ^3H-Iloprost for 24 hours. Cell membrane, cytosol, and nuclear fractions were prepared from the cells, and then the distribution of ^3H-Iloprost was determined using the fractions. The results were obtained from three sets of experiments (n=3) and are presented as mean±S.D."}, "[7]": {"test_system": "cAMP", "assay": "Intracellular level of cAMP accumulated in transfected cells", "format": "cell-based, human", "conditions": "Iloprost at various concentrations, serum-free medium", "experimental": "FIG. 8 illustrates a diagram showing the intracellular level of cAMP accumulated in cells in serum-free medium containing Iloprost at the concentrations indicated (0, 1, 10, or 100 μM). The cells were transfected with expression plasmids for PGISwt, PGISC441A, or a mock control expression plasmid and β-galactosidase expression plasmid. After 17 hours, the medium was changed with serum-free medium containing Iloprost at various concentrations (0, 1, 10, or 100 μm). All results were obtained from three sets of experiments (n=3) and are presented as mean±S.D."}, "[8]": {"test_system": "HEK-293 cells", "assay": "Double-staining with anti-PGIS antibody and Hoechst 33258 (chromatin condensation)", "format": "cell-based, human", "conditions": "100 μM; HEK-293 cells expressing PGIS; data not shown", "experimental": "Cultured monolayer cells of human fetal kidney-derived HEK-293 cell line (ATCC CRL-1573) were harvested and plated in Dulbecco's modified Eagle's medium containing 10% bovine fetal serum (FBS), 100 U/ml penicillin, and […] streptomycin (3×10^5 cells/60-mm dish). 24 hours after incubation, the cells were transfected with 3 μg of any one of PGISwt (described below), PGISC441A (described below), or control vector pCMV7 (generous gift from Texas University; Andersson, S. et al., J. Biol. Chem., 264, 8222-8229 (1989): this can be replaced with pcDNA3 (Invitrogen; catalogue number: #A-150228)) and […] of pvA (plasmid encoding adenovirus-associated RNA1) using LipofectAMINE (Gibco-BRL). 5 hours after transfection, the cells were rinsed twice with phosphate-buffered physiological saline (PBS), and the fresh medium was added thereto. After gene transfer, the cells were cultured for 48 to 60 hours in total. Then, the cells were rinsed with PBS, and fixed with 3.7% formaldehyde for 10 minutes. The cells fixed were washed three times with PBS, and then incubated with the anti-PGIS antibody P4 for 2 hours. After being washed three times with PBS containing 2% FBS, the cells were incubated with anti-rabbit Ig-Texas Red at 37° C. for 1 hour and stained with […] Hoechst 33258 at room temperature for 15 minutes."}},
  "data": [
    {"molecule": "5′-CACAGGATAAGTCACCGAG-3′ (listed as DNA, chemistry not given here) [antisense oligonucleotide PPAR-α]", "values": [
      {"measurement": "effect of oligonucleotide on prostacyclin-mediated apoptosis", "setting": "[1]", "result": "apoptosis was not inhibited"},
      {"measurement": "changes in the oligonucleotide-treated cells (viability, morphology)", "setting": "[2]", "result": "cell viability declined"}
    ]},
    {"molecule": "5′-CTCGGTGACTTATCCTGTG-3′ (listed as DNA, chemistry not given here) [PPAR-α sense oligonucleotide]", "values": [
      {"measurement": "changes in the oligonucleotide-treated cells (viability, morphology)", "setting": "[2]", "result": "no marked changes"}
    ]},
    {"molecule": "5′-TCCTCTTTCTCCTCCTCTT-3′ (listed as DNA, chemistry not given here) [PPAR-δ antisense oligonucleotide]", "values": [
      {"measurement": "activity of luciferase co-expressed with PGISwt in oligonucleotide-treated cells", "setting": "[3]; HEK-293", "result": "significantly decreased"},
      {"measurement": "production of PPAR-δ protein", "setting": "[4]", "result": "suppressed"},
      {"measurement": "effect of oligonucleotide on prostacyclin-mediated apoptosis", "setting": "[1]", "result": "significantly blocked"},
      {"measurement": "changes in the oligonucleotide-treated cells (viability, morphology)", "setting": "[2]", "result": "normal morphology"},
      {"measurement": "number of cells after oligonucleotide treatment", "setting": "[2]", "result": "increased"}
    ]},
    {"molecule": "CC1CNCCN1S(=O)(=O)c1cccc2cnccc12", "note": "(centres unmarked) [H-7]", "values": [
      {"measurement": "effect on prostacyclin-mediated apoptosis", "setting": "[1]; H-7 1, 10, 100 μM in serum-free medium, FIG. 10", "result": "did not block but enhanced"}
    ]},
    {"molecule": "CC#CCC(C)[C@H](O)/C=C/[C@@H]1[C@H]2C/C(=C/CCCC(=O)O)C[C@H]2C[C@H]1O", "note": "(some centres unmarked) [Iloprost]", "values": [
      {"measurement": "activity of PPRE-luciferase on treatment", "setting": "[3]; 1 to 100 μM added to medium, endogenous PPAR", "result": "could not increase"},
      {"measurement": "induction/enhancement of apoptosis by treatment with the agent", "setting": "[1]", "result": "apoptosis was not induced"},
      {"measurement": "activation of recombinant PPAR overexpressed in CV-1 cells", "setting": "[5]", "result": "results in activation"},
      {"measurement": "Iloprost taken up by HEK-293 cells", "setting": "[6]", "result": "very little"},
      {"measurement": "share of the Iloprost incorporated that is localized on cell membrane", "setting": "[6]", "result": "> 99", "unit": "%"},
      {"measurement": "intracellular cAMP", "setting": "[7]", "result": "accumulated"}
    ]},
    {"molecule": "CCCCC[C@H](O)/C=C/[C@@H]1[C@@H](C/C=C\\CCCC(=O)O)[C@H]2CO[C@@H]1C2", "note": "[U46619]", "values": [
      {"measurement": "Hoechst 33258-positive cells", "setting": "[8]", "result": 32, "unit": "%"}
    ]},
    {"molecule": "CCCCC/C=C\\C/C=C\\C/C=C\\C/C=C\\CCCC(=O)O", "note": "[arachidonic acid]", "values": [
      {"measurement": "apoptosis on addition to the medium", "setting": "[1]; HEK-293 cells expressing both PGISwt and COX-2", "result": "induction of apoptosis in almost all the cells"}
    ]},
    {"molecule": "CC(=O)Oc1ccccc1C(=O)O", "note": "[aspirin]", "values": [
      {"measurement": "Hoechst 33258-positive cells", "setting": "[8]", "result": 48, "unit": "%"}
    ]},
    {"molecule": "CCCC(=O)Nc1ncnc2c1ncn2[C@@H]1O[C@@H]2COP(=O)(O)O[C@H]2[C@H]1OC(=O)CCC", "note": "[dbcAMP, dibutyryl-cAMP]", "values": [
      {"measurement": "induction/enhancement of apoptosis by treatment with the agent", "setting": "[1]", "result": "apoptosis was not enhanced"}
    ]},
    {"molecule": "CCCCC[C@H](O)/C=C/[C@@H]1[C@H]2C/C(=C/CCCC(=O)O)O[C@H]2C[C@H]1O", "note": "[prostacyclin]", "values": [
      {"measurement": "activation of recombinant PPAR overexpressed in CV-1 cells", "setting": "[5]", "result": "could not activate"}
    ]}
  ]
}
